Assay results taken from paper PMC2697495 (The Journal of pharmacy and pharmacology, 2008).
Marks after values point to notes of the source that are not given here.

Columns and labels:
[1] = system: endogenous β-glucuronidase, HEK293 vector control; experiment: Estradiol glucuronide hydrolysis by HEK293 vector control cell microsomes; type: in vitro ADME, human; conditions: HEK293 control 0.25 mg/ml; without saccharolactone; E-3-G 100 μM, E-17-G 200 μM; n=3
[2] = system: human intestinal microsomes; experiment: Estradiol glucuronide formation in 6 hours by human intestinal microsomes; type: in vitro ADME; conditions: for Apparent nmoles formed in 6 hours: intestinal microsomes 0.5 mg protein/ml, β-estradiol 100 μM and UDPGA, mean of triplicate; for Predicted actual nmoles formed in 6 hours: intestinal microsomes, apparent formed plus degraded
human kidney microsomes = experiment: Estradiol glucuronide formation in 6 hours by human kidney microsomes; type: in vitro ADME; conditions: for Apparent nmoles formed in 6 hours: kidney microsomes 0.5 mg protein/ml, β-estradiol 100 μM and UDPGA, mean of triplicate; for Predicted actual nmoles formed in 6 hours: kidney microsomes, apparent formed plus degraded
[3] = system: pooled human liver microsomes (pHLMs); conditions: pHLMs 0.5 mg protein/ml; β-estradiol 100 μM and UDPGA; mean of triplicate
[4] = biological target: endogenous β-glucuronidase, human lung microsomes (Homo sapiens, UniProt P08236); experiment: Estradiol glucuronide hydrolysis by human lung microsomes; conditions: lung microsomes 0.5 mg/ml; without saccharolactone; E-3-G 100 μM, E-17-G 200 μM; n=3
[5] = system: endogenous β-glucuronidase, human kidney microsomes; experiment: Estradiol glucuronide hydrolysis by human kidney microsomes; conditions: for Nmoles degraded as a % of nmoles formed: kidney microsomes; for Nmoles degraded in 6 hours: kidney microsomes 0.5 mg protein/ml, estradiol glucuronide without UDPGA; for percent glucuronide remaining after 6 hours: kidney microsomes 0.5 mg/ml, without saccharolactone, E-3-G 100 μM, E-17-G 200 μM, n=3
[6] = system: endogenous β-glucuronidase, human intestinal microsomes; experiment: Estradiol glucuronide hydrolysis by human intestinal microsomes; conditions: for Nmoles degraded as a % of nmoles formed: intestinal microsomes; for Nmoles degraded in 6 hours: intestinal microsomes 0.5 mg protein/ml, estradiol glucuronide without UDPGA; for percent glucuronide remaining after 6 hours: intestine microsomes 0.5 mg/ml, without saccharolactone, E-3-G 100 μM, E-17-G 200 μM, n=3
[7] = Estradiol glucuronide stability in phosphate buffer; conditions: 50 mM phosphate buffer pH 7.5, 37 °C, no enzyme; without saccharolactone; E-3-G 100 μM, E-17-G 200 μM; n=3
[8] = biological target: T1, endogenous β-glucuronidase, pooled human liver microsomes (Homo sapiens, UniProt P08236); experiment: Estradiol glucuronide hydrolysis; conditions: for percent glucuronide remaining after 6 hours: pHLM 0.5 mg/ml, E-3-G 100 μM, E-17-G 200 μM, n=3; for Nmoles degraded in 6 hours: pHLMs 0.5 mg protein/ml, estradiol glucuronide without UDPGA; for Nmoles degraded as a % of nmoles formed: pHLMs
T1 sequence (P08236 23-651): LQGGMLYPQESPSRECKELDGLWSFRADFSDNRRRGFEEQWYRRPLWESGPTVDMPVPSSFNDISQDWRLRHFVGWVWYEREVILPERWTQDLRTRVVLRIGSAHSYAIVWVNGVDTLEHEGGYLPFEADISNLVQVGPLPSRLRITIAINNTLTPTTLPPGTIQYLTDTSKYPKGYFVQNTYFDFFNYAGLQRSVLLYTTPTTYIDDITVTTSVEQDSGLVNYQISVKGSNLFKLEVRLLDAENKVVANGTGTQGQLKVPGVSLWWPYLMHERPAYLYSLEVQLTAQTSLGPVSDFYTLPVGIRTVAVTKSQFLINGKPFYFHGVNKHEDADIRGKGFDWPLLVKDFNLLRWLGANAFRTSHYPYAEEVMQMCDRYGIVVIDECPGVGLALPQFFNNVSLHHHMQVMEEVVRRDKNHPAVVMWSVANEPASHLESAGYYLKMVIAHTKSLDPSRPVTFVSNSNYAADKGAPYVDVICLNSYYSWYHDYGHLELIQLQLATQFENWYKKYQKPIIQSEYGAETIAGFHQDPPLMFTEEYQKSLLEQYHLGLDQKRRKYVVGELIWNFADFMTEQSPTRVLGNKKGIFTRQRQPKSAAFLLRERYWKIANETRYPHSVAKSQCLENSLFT

microsomes = conditions: 50 μg alamethicin per mg microsomal protein, ref Fisher et al 2000; cited from earlier work

| Compound | percent glucuronide remaining after 6 hours [1] [%] | Apparent nmoles formed in 6 hours [2] [nmol] | Predicted actual nmoles formed in 6 hours [2] [nmol] | Apparent nmoles formed in 6 hours (human kidney microsomes) [nmol] | Predicted actual nmoles formed in 6 hours (human kidney microsomes) [nmol] | Apparent nmoles formed in 6 hours [3] [nmol] | percent glucuronide remaining after 6 hours [4] [%] | Nmoles degraded as a % of nmoles formed [5] [%] | Nmoles degraded in 6 hours [5] [nmol] | percent glucuronide remaining after 6 hours [5] | Nmoles degraded as a % of nmoles formed [6] [%] | Nmoles degraded in 6 hours [6] [nmol] | percent glucuronide remaining after 6 hours [6] | percent glucuronide remaining after 6 hours [7] [%] | percent glucuronide remaining after 6 hours ([8]; with 10 mM saccharolactone) | percent glucuronide remaining after 6 hours ([8]; without saccharolactone) | Nmoles degraded in 6 hours [8] [nmol] | other results |
| --- | --- | --- | --- | --- | --- | --- | --- | --- | --- | --- | --- | --- | --- | --- | --- | --- | --- | --- |
| C[C@]12CC[C@@H]3c4ccc(O)cc4CC[C@H]3[C@@H]1CC[C@@H]2O[C@@H]1O[C@H](C(=O)O)[C@@H](O)[C@H](O)[C@H]1O [E-17-G, estradiol 17-glucuronide] | 104±3 | 0.58 | 0.58 | 1.11 | 1.11 | 1.23 | 92±6 | 0 | 0 | 104±3% | 0 | 0 | 110±4 ^b % | 102±13 | 84±3% | 86±2 ^b % | 0.29 | Nmoles degraded as a % of nmoles formed ([8]; listed as Estradiol-17-Glucuronide): 19%; Nmoles degraded as a % of nmoles formed ([8]; listed as estradiol-17 glucuronide): 19% |
| alamethicin |  |  |  |  |  |  |  |  |  |  |  |  |  |  |  |  |  | conjugation rate relative to that in absence of alamethicin (microsomes): 2 to 3 times |
| C[C@]12CC[C@@H]3c4ccc(O[C@@H]5O[C@H](C(=O)O)[C@@H](O)[C@H](O)[C@H]5O)cc4CC[C@H]3[C@@H]1CC[C@@H]2O [E-3-G, estradiol 3-glucuronide] | 102±4 | 16.7 | 16.7 | 2.99 | 2.99 | 3.51 | 85±6 | 0 | 0 | 104±1 ^a^, ^b % | 0 | 0 | 104±3% | 101±5 | 84±2 ^a % | 82±1 ^a^, ^b % | 0.36 | Nmoles degraded as a % of nmoles formed [8]: 9.30% |
